Measured values published in ChEMBL document CHEMBL1137598, “Synthesis and structure-activity relationship of N-acyl-Gly-, N-acyl-Sar- and N-blocked-boroPro inhibitors of FAP, DPP4, and POP” (Bioorg Med Chem Lett, 2007).

What was measured:
[1] = target: T1, Prolyl endopeptidase (Homo sapiens, UniProt P48147); experiment: Inhibitory constant against POP
T1 sequence (P48147 whole entry): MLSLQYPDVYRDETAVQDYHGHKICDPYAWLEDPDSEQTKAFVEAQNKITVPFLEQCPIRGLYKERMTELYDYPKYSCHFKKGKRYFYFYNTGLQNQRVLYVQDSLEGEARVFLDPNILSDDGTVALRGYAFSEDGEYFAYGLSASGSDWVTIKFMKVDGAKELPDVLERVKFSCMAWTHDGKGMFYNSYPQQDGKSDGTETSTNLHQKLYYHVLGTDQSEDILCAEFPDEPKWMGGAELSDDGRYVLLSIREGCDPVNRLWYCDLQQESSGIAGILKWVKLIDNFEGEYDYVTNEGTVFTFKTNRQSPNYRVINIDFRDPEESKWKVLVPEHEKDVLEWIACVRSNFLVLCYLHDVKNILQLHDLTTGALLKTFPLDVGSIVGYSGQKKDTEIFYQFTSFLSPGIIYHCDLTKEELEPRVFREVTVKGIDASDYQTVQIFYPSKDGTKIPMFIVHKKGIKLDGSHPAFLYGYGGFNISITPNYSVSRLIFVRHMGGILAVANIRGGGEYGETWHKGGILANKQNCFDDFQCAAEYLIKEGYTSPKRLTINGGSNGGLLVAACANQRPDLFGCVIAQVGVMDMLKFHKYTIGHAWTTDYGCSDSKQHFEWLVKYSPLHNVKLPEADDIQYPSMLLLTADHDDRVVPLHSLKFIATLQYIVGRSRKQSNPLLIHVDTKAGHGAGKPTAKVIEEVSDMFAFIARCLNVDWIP

[2] = target: Dipeptidyl peptidase 4 (Homo sapiens) (UniProt P27487); experiment: Inhibition of DPP-4 at 500uM
Chain of Dipeptidyl peptidase 4 (Homo sapiens) (P27487 whole entry, looked up): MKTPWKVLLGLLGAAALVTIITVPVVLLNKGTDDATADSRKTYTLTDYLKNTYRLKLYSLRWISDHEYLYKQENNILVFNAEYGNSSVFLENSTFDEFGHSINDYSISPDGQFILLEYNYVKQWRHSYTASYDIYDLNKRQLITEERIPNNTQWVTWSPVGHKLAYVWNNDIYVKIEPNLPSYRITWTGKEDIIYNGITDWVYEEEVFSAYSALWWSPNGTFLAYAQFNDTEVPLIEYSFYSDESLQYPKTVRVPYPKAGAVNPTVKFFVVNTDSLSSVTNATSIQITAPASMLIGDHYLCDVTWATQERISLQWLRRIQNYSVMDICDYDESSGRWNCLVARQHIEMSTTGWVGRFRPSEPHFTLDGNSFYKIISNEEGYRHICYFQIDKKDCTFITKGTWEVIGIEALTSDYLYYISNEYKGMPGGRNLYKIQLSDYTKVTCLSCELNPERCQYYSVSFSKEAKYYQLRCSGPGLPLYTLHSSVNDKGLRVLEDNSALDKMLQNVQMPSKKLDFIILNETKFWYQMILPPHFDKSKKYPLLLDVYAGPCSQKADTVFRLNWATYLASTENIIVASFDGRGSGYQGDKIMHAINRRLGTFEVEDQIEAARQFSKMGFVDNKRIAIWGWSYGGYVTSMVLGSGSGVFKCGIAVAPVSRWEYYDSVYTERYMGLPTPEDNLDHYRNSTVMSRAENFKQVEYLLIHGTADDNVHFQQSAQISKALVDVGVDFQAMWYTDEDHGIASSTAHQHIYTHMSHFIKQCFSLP

For `CS(=O)(=O)NCC(=O)N1CCC[C@H]1B(O)O`, the Ki [1] was 1360 nM.
`CC(C)C(=O)N(C)CC(=O)N1CCC[C@H]1B(O)O` was tested, and the Ki [1] was 13 nM.
With `CC(=O)N[C@H](C)C(=O)N1CCC[C@H]1B(O)O` the inhibition [2] was 17%.
